pIC50: −log10 of the molar value. Values joined by “and” are separate entries in the source; they are usually repeats but may differ in a detail not shown here. Identical values can stand only once. Like-named read-outs stand apart in the source and are kept apart here.
Experiments:
CCRF-CEM [1] = assay: 3H-TdR incorporation at 72 hr (24 hr drug exposure, wash, 48 hr); assay type: cell-based; settings: read-out: IC50 in μM (3H-TdR incorporation at 72 hr) CCRF-CEM 24 h, CCRF-CEM T-cell Leukemia, 72 hr assay
Description: (§1) Exposition of 24 hr to drug, wash, incubated for another 48 hr (total of 72 hr assay)
(§2) (3H-Thymidine Incorporation Assay)

CEM/dCK- [2] = assay: as above; assay type: cell-based; settings: for IC50: 24 h drug exposure, 72 hr assay; for Factor* (Resistance Factor = Ratio of dCK- on Wild-type CCRF-CEM): ratio of IC50 CEM/dCK- to IC50 CCRF-CEM
Description: as §1, §2

MCF-7 = assay: as above; assay type: cell-based, Human
Description: as §1, §2

H-460 [3] = assay: as above; assay type: cell-based, Human
Description: as §1, §2

SF-268 = assay: as above; assay type: cell-based, Human; settings: 24 h drug exposure, 72 hr assay
Description: as §1, §2

H-460 [4] = assay: 3H-TdR (3H-thymidine) incorporation assay at 72 hr; assay type: cell-based, Human; settings: 3H-TdR incorporation at 72 hr
CCRF-CEM [5] = assay: 3H-TdR (3H-thymidine) incorporation assay at 72 hr; assay type: cell-based; settings: 3H-TdR incorporation at 72 hr
Description: (§3) Table of IC50 Values (μM) for Controls
as §1, §2

CEM/dCK- [6] = assay: 3H-TdR (3H-thymidine) incorporation assay at 72 hr; assay type: cell-based; settings: Homo sapiens, CCRF-CEM, read-out: IC50 CEM/dCK- 24 h, 24 h drug exposure, wash, another 48 hr; deoxycytidine kinase-deficient CCRF-CEM
Description: as §3, §1, §2

[7] = Homo sapiens, CCRF-CEM, read-out: IC50 in μM (3H-TdR incorporation at 72 hr) CEM/dCK- 24 h, CCRF-CEM deoxycytidine kinase-deficient
[8] = Homo sapiens, MCF7, read-out: IC50 in μM (3H-TdR incorporation at 72 hr) MCF-7 24 h, MCF-7 Human Breast Carcinoma, 72 hr assay
[9] = Homo sapiens, NCI-H460, read-out: IC50 in μM (3H-TdR incorporation at 72 hr) H-460 24 h, H-460 Human Lung Carcinoma, 72 hr assay
[10] = Homo sapiens, SF-268, read-out: IC50 in μM (3H-TdR incorporation at 72 hr) SF-268 24 h, SF-268 Human Central Nervous System Tumor
[11] = read-out: IC50 in μM (3H-TdR incorporation at 72 hr) MCF-7 24 h, MCF-7 Human Breast Carcinoma, 72 hr assay
[12] = read-out: IC50 in μM (3H-TdR incorporation at 72 hr) SF-268 24 h, SF-268 Human Central Nervous System Tumor
[13] = read-out: IC50 in μM (3H-TdR incorporation at 72 hr) CEM/dCK- 24 h, CCRF-CEM deoxycytidine kinase-deficient

Compound	IC50 (CCRF-CEM [1]; Homo sapiens, CCRF-CEM) [µM]	IC50 (CEM/dCK- [2]; [7]) [µM]	Factor* (Resistance Factor = Ratio of dCK- on Wild-type CCRF-CEM) (CEM/dCK- [2])	IC50 (MCF-7; [8]) [µM]	IC50 (H-460 [3]; [9]) [µM]	IC50 (SF-268; [10]) [µM]	pIC50 (H-460 [4]; Homo sapiens, NCI-H460, read-out: IC50 H-460 24 h, 24 h drug exposure, wash, another 48 hr)	pIC50 (H-460 [4]; read-out: IC50 H-460 24 h, 24 h drug exposure, wash, another 48 hr)	pIC50 (CCRF-CEM [5]; Homo sapiens, CCRF-CEM, read-out: IC50 CCRF-CEM 24 h, 24 h drug exposure, wash, another 48 hr)	pIC50 (CCRF-CEM [5]; read-out: IC50 CCRF-CEM 24 h, 24 h drug exposure, wash, another 48 hr)	pIC50 (CEM/dCK- [6])	IC50 (CCRF-CEM [1]) [µM]	IC50 (MCF-7; [11])	IC50 (SF-268; [12])	IC50 (CEM/dCK- [2]; [13]) [µM]	IC50 (H-460 [3]; read-out: IC50 in μM (3H-TdR incorporation at 72 hr) H-460 24 h, H-460 Human Lung Carcinoma, 72 hr assay) [µM]
CCCCN(/C=N/c1ccn([C@@H]2CO[C@H](CO)O2)c(=O)n1)CCCC (stereo in doubt) [Compound 221, N,N-Dibutyl-N′-[1-(2-hydroxymethyl [1,3]dioxolan-4-yl)-2-oxo-1,2-dihydro-pyrimidin-4-yl]-formamidine]	0.13	> 100	>769	0.39	0.43	1.6										
CN(C)/C=N/c1ccn([C@@H]2CO[C@H](CO)O2)c(=O)n1 (stereo in doubt) [Compound 222, N′-[1-(2-HYDROXYMETHYL- [1,3]DIOXOLAN-4-YL)-2- OXO-1,2-DIHYDRO- PYRIMIDIN-4-YL]-N,N- DIMETHYL-FORMAMIDINE]	0.11	> 100	>909	0.19	0.21	0.85										
O=c1nc(/N=C2/CCCN2Cc2ccccc2)ccn1[C@@H]1CO[C@H](CO)O1 (stereo in doubt) [Compound 236, 4-(1-BENZYL-PYRROLIDIN- 2-YLIDENEAMINO)-1-(2- HYDROXYMETHYL- [1,3]DIOXOLAN-4-YL)-1H- PYRIMIDIN-2-ONE]	5.1	> 100	>20	8.6	3.7	0.12										
Cc1cccc(C)c1C(=O)OC[C@H]1OC[C@@H](n2ccc(N)nc2=O)O1 [Compound 162, 1-[2-(2,6-DIMETHYL- BENZOYLOXYMETHYL)- [1,3]DIOXOLAN-4-YL]-2- OXO-1,2-DIHYDRO PYRIMIDIN-4-YL- AMMONIUM; CHLORIDE]	3.3	> 100		5.7		12	5.08	5.19	5.66	5.55	< 4.00	4.1	3.6 µM	17 µM		
Nc1ccn([C@@H]2CO[C@H](COC(=O)c3ccccc3)O2)c(=O)n1 [Compound 163, BENZOIC ACID 4-(4- AMINO-2-OXO-2H- PYRIMIDIN-1-YL)- [1,3]DIOXOLAN-2- YLMETHYL ESTER]	0.0033	27	8,182	0.033	0.0092	0.025										
CN(C)CCCOC(=O)OC[C@H]1OC[C@@H](n2ccc(N)nc2=O)O1.O=C(O)C(F)(F)F [Compound 164, CARBONIC ACID 4-(4- AMINO-2-OXO-2H- PYRIMIDIN-1-YL)- [1,3]DIOXOLAN-2- YLMETHYL ESTER 3- DIMETHYLAMINO-PROPYL ESTER TRIFLUORO-ACETIC ACID SALT]	0.06	> 100	1667	0.14	0.13	0.28										
O=C(NCNc1ccn([C@@H]2CO[C@H](CO)O2)c(=O)n1)c1ccccc1 [Compound 165, N-{[1-(2-HYDROXYMETHYL- [1,3]DIOXOLAN-4-YL)-2- OXO-1,2-DIHYDRO- PYRIMIDIN-4-YLAMINO]- METHYL}-BENZAMIDE]	1.8	> 100	>56	10	3.4	16										
CN(C)CCCCOC(=O)Nc1ccn([C@@H]2CO[C@H](CO)O2)c(=O)n1.O=C(O)C(F)(F)F [Compound 169, [1-(2-HYDROXYMETHYL- [1,3]DIOXOLAN-4-YL)-2- OXO-1,2-DIHYDRO- PYRIMIDIN-4-YL]- CARBAMIC ACID 4- DIMETHYLAMINO-BUTYL ESTER TRIFLUOROACETIC ACID SALT]	2	> 100	>50	5.1	8.2	7.1										
C#CCN(CC#C)c1ccn([C@@H]2CO[C@H](CO)O2)c(=O)n1 [Compound 171, (S,S) 4-(DI-PROP-2′- YNYL-AMINO)-1-(2″- HYDROXYMETHYL- [1,3]DIOXOLAN-4″-YL)- 1H-PYRIMIDIN-2-ONE]	38	> 100	>2.6	41	45	82										
C#CCOC[C@H]1OC[C@@H](n2ccc(N)nc2=O)O1 [Compound 173, (S,S)-4-AMINO-1-(2′- PROP-2′-YNYLOXYMETHYL- [1,3]DIOXOLAN-4′-YL)- 1H-PYRIMIDIN-2-ONE]	2.6	> 100	>38	17	6.1	2										
COc1ccc(C(=O)Nc2ccn([C@@H]3CO[C@H](COC(=O)c4ccc(OC)cc4)O3)c(=O)n2)cc1 [Compound 174, 4-METHOXY-BENZOIC ACID 4-[4-(4-METHOXY- BENZOYLAMINO)-2-OXO-2H- PYRIMIDIN-1-YL]- [1,3]DIOXOLAN-2- YLMETHYL ESTER]	9	> 100	>11	21	11	38										
COc1ccc(C(=O)Nc2ccn([C@@H]3CO[C@H](CO)O3)c(=O)n2)cc1 [Compound 175, N-[1-(2-HYDROXYMETHYL- [1,3]DIOXOLAN-4-YL)-2- OXO-1,2-DIHYDRO- PYRIMIDIN-4-YL]-4- METHOXY-BENZAMIDE]	3.5	> 100	>29	3.1	6.3	32										
COc1ccc(C(=O)OC[C@H]2OC[C@@H](n3ccc(N)nc3=O)O2)cc1 [Compound 176, 4-METHOXY-BENZOIC ACID 4-(4-AMINO-2-OXO-2H- PYRIMIDIN-1-YL)- [1,3]DIOXOLAN-2- YLMETHYL ESTER]	0.014	38			0.04	0.057						0.011		0.032 µM	68	0.043
CCCCCCc1ccc(C(=O)OC[C@H]2OC[C@@H](n3ccc(N)nc3=O)O2)cc1 [Compound 191, 4-HEXYL-BENZOIC ACID 4- (4-AMINO-2-OXO-2H- PYRIMIDIN-1-YL)- [1,3]DIOXOLAN-2-YL METHYL ESTER]	< 0.0001			< 0.0001	< 0.0001	< 0.0001										
O=C(CCCCCCCc1ccccc1)Nc1ccn([C@@H]2CO[C@H](CO)O2)c(=O)n1 [Compound 197, 8-PHENYL-OCTANOIC ACID [1-(2-HYDROXYMETHYL- [1,3]DIOXOLAN-4-YL)-2- OXO-1,2-DIHYDRO- PYRIMIDIN-4-YL]-AMIDE]	< 0.0001			< 0.0001	< 0.0001	< 0.0001										
Nc1ccn([C@@H]2CO[C@H](COC(=O)CCCCCCCc3ccccc3)O2)c(=O)n1 [Compound 198, 8-PHENYL-OCTANOIC ACID 4-(4-AMINO-2-OXO-2H- PYRIMIDIN-1-YL)- [1,3]DIOXOLAN-2-YL METHYL ESTER]	< 0.0001				< 0.0001	< 0.0001										
CCC(CC)(CCCCCCc1ccccc1)C(=O)OC[C@H]1OC[C@@H](n2ccc(N)nc2=O)O1 [Compound 233, 2,2-DIETHYL-8-PHENYL- OCTANOIC ACID 4-(4- AMINO-2-OXO-2H- PYRIMIDIN-1-YL)- [1,3]DIOXOLAN-2-YL METHYL ESTER]	11	18		13		12						9.7	9.6 µM and 11 µM	17 µM and 15 µM	22	

Source: US20030013660A1, “Dioxolane analogs for improved inter-cellular delivery” (Shire BioChem Inc., priority 2000, published 2003)
